Measured values: patent publication US20080171659A1, “Insecticidally Coated Fertilizer Solids” (priority 2007, published 2008)

Format: physicochemical
Description: U.S. Pat. No. 5,783,203 mentions acetone as a solvent for imidacloprid. […] Using a 6 wt % imidacloprid in acetone would mean applying 1.67 wt % of the solution on the fertilizer based on the combined weight of the fertilizer and the solution to achieve a product with 0.10 wt % imidacloprid. This would be very difficult to achieve a dry product. Fertilizer products with 0.2 wt % and 0.5 wt % imidacloprid would require 3.33 wt % and 8.33 wt % respectively of the imidacloprid solution absorbed onto the fertilizer; concentrations which are not likely feasible in acetone. In addition, acetone is volatile and highly flammable which would make processing very difficult and expensive.

SMILES: O=[N+]([O-])NC1=NCCN1Cc1ccc(Cl)nc1 [imidacloprid]
- solubility: less than 7 wt %
